Reference: publication PMC4294381, “Metformin repositioning as antitumoral agent: selective antiproliferative effects in human glioblastoma stem cells, via inhibition of CLIC1-mediated ion current” (Oncotarget, 2014)

Experiments:
Type in all cases: cell-based
[1] = molecular target: T1, chloride intracellular channel-1 (CLIC1) (Homo sapiens, UniProt O00299); test: whole-cell patch clamp in transfected CHO cells; set-up: FLAG-tagged CLIC1-wt expressed in CHO cells
[2] = molecular target: T2, chloride intracellular channel-1 (CLIC1) (Homo sapiens, UniProt O00299, R29A); test: whole-cell patch clamp in transfected CHO cells
T2 construct: FLAG-tagged CLIC1 R29A expressed in CHO cells

[3] = molecular target: T1, chloride intracellular channel-1 (CLIC1); test: patch clamp, whole-cell (U87, GBM CSC, CHO expressing human CLIC1) and outside-out single channel
[4] = molecular target: T3, chloride intracellular channel-1 (CLIC1) (Homo sapiens, UniProt O00299, K37A); test: whole-cell patch clamp in transfected CHO cells, metformin […]
T3 construct: FLAG-tagged CLIC1 K37A expressed in CHO cells

| EC50 [1] [µM] | EC50 [2] [µM] | EC50 [3] [µM] | Structure (SMILES) | whole-cell patch clamp in transfected CHO cells, metformin 10 mM [4] |
| --- | --- | --- | --- | --- |
| 27.3 | 29.2 |  | CC1(C2CCCC2)Cc2cc(OCC(=O)O)c(Cl)c(Cl)c2C1=O (stereo not shown) [IAA94] |  |
|  |  | 2100 | CN(C)C(=N)N=C(N)N [Metformin] | Metformin significantly inhibited membrane current in CLIC1 wt and K37A-transfected cells (Fig. 7A and D) |
